Source: ChEMBL document CHEMBL1201862, “PubChem BioAssay data set” (2004)
Counter-ions that a name gives are not always drawn. Blank lines part the entries; values can stand above or below the compound they belong to. Active and inactive are the calls of the source.

Tests used:
[1] = Shn3 3'UTR reporter inhibitors, dose response, cell-based, Clone20 osteoblasts, firefly luciferase, cherry-picked (AID 624132); format: functional;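 further: firefly luciferase luminescence from reporter carrying the Shn3 3'UTR in osteoblasts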
[2] = HepG2 cell cytotoxicity, dose response, cytotoxicity control for Shn3 inhibitor project, CellTiter-Glo, cherry-picked (AID 624134); format: functional, cell-based
[3] = control 3'UTR Renilla luciferase suppression, dose response, counter-screen for Shn3 inhibitor project, cell-based, Clone20-Shn3RL, cherry-picked (AID 624133); format: functional
Genome polyprotein = Genome polyprotein (dengue virus type 2, UniProt P29990); test: Dengue-2 NS5 methyltransferase inhibitors, primary screen, biochemical, confirmation dose response (AID 588689); format: functional
HEK293 = test: inhibitors of LMP1-driven NF-kB reporter, dose response, cell-based, HEK293, luciferase, cherry-pick (AID 588343); format: functional; conditions: Homo sapiens
Caspase-6 = biological target: T1, Caspase-6 (Homo sapiens, UniProt P55212); test: human caspase-6 inhibitors, dose response, biochemical, VEID-R110 fluorescence, cherry-pick (AID 720632)
T1 sequence (P55212 whole entry): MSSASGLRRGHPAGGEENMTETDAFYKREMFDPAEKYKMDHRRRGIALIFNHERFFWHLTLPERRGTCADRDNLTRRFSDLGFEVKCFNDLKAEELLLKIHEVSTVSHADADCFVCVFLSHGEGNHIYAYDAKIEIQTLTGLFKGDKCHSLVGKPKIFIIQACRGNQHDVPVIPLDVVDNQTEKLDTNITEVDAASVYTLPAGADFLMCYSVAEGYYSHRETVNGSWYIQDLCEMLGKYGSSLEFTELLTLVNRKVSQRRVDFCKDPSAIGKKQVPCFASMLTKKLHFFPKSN

Paired box protein Pax-8 = Paired box protein Pax-8 (Homo sapiens, UniProt Q06710); test: inhibitors of PAX8-driven TPO luciferase reporter, dose response, RMG-I cells, cherry-pick (AID 687027); format: functional, cell-based;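 further: luciferase reporter driven by Pax8 target thyroperoxidase promoter measured by SteadyGlo luminescence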
[4] = non-specific cell cytotoxicity, dose response, cytotoxicity control for PAX8 inhibitor project, plate reader, dry powder samples (AID 743021); format: functional, cell-based
[5] = NIH:OVCAR-3 ovarian cancer cell cytotoxicity, dose response, PAX8 inhibitor project, plate reader, dry powder samples (AID 743044); format: functional, cell-based
[6] = cytotoxicity in OVCAR8 ovarian cancer cells, dose response, PAX8 project, cell-based, plate reader, dry powder samples (AID 743197); format: functional; conditions: OVCAR-8
[7] = Concentration-dependent survival of SW480 colon cancer line, luminescence detection with CellTiter-Glo, half-maximal inhibitory concentration (AID 1117338); format: functional
[8] = RKO cell viability reduction, dose response, CellTiter-Glo luminescence (AID 1117322); format: functional
[9] = cytotoxicity toward HCT116 cells – cell-based, CellTiter-Glo luminescence, IC50, dose response (AID 1117332); format: functional; conditions: HCT-116
[10] = SNU-C1 cell viability reduction, dose response, CellTiter-Glo luminescence (AID 1117323); format: functional, cell-based
[11] = cytotoxicity toward Colo320 cells – cell-based, CellTiter-Glo luminescence, IC50, dose response (AID 1117334); format: functional; conditions: COLO 320
[12] = cytotoxicity toward HT-29 cells – cell-based, CellTiter-Glo luminescence, IC50, dose response (AID 1117330); format: functional
[13] = CellTiter-Glo luminescent dose response of DLD-1 viability loss (AID 1117352); format: functional
[14] = HCT116 cell viability decrease, GSK3B pretreatment – CellTiter-Glo, IC50, dose response (AID 1117339); format: functional; conditions: HCT-116

Paired box protein Pax-8, sequence (Q06710 whole entry): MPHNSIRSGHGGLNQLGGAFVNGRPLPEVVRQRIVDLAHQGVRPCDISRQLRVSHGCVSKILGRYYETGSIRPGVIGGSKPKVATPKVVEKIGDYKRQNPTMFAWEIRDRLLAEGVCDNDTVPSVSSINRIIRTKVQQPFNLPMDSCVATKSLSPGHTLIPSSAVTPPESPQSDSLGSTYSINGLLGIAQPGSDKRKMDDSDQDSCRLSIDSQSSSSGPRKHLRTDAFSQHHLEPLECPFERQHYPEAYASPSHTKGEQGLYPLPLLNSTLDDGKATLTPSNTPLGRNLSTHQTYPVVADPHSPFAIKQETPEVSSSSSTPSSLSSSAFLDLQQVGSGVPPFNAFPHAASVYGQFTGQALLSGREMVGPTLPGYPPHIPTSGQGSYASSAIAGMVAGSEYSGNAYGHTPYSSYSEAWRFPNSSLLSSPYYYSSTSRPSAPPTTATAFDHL
Genome polyprotein, sequence (P29990 2492-3391 limits assumed): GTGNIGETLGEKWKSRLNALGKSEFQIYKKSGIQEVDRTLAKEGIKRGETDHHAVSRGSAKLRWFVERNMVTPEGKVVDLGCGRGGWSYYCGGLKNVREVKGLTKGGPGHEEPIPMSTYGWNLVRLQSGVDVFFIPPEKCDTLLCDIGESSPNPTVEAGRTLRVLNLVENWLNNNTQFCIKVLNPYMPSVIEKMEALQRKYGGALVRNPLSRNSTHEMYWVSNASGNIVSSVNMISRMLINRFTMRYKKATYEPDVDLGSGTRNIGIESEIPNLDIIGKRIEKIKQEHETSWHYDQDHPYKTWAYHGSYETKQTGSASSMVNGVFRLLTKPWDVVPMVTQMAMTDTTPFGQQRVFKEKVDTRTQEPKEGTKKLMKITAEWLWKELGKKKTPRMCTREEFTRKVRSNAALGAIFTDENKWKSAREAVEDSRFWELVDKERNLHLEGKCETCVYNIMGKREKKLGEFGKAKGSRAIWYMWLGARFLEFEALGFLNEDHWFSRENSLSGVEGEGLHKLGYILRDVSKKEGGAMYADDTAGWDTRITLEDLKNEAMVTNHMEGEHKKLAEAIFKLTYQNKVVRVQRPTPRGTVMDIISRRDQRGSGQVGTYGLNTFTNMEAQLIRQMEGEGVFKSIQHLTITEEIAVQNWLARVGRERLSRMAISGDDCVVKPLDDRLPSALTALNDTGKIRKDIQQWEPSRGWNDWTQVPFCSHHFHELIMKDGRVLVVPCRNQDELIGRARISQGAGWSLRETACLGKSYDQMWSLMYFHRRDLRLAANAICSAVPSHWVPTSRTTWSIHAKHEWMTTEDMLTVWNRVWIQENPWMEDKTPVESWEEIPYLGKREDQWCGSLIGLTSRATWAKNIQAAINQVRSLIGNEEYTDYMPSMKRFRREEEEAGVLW

Structure (SMILES): O=C(Nc1ccc(Br)cc1)c1ccc(F)c(S(=O)(=O)NCc2cccs2)c1
- AC50 [1]: 3.05 µM (active)
- AC50 [2]: 4.35 µM (active)
- AC50 [3]: 6.05 µM (active)

- IC50 (Genome polyprotein): 69.4 µM (active)
Structure (SMILES): CC(C)c1ccc(N2C(=O)C(Cl)=C(N3CCOCC3)C2=O)cc1

Structure (SMILES): CC(=O)C1(C)CCC2C3C=C(C)C4=CC(=O)CCC4(C)C3CCC21C (stereo unspecified)
- AC50 [1]: 9.83 µM (active)
- AC50 [2]: 45.2 µM (active)
- AC50 [3]: 29.1 µM (active)

Structure (SMILES): COc1ccc(C(=O)Nc2ccc(N3CCN(C(=O)c4ccccc4C)CC3)cc2)cc1
- AC50 (HEK293): 4.67 µM (active)

- AC50 (Caspase-6): 40.1 µM (active)
Structure (SMILES): O=C(COC(=O)c1ccc([N+](=O)[O-])o1)Nc1ccc(Br)cc1F

Structure (SMILES): C(=NNc1ccc2ccccc2n1)c1ccccn1
- AC50 (Paired box protein Pax-8): 2.95 µM (active)
- AC50 [4]: 58.9 µM (active)

Structure (SMILES): COCC(=O)N1CCC(Oc2ccc(C(=O)N3C[C@H]4CC[C@H]3C4)cc2)CC1
- AC50 (HEK293): > 350 µM (inactive)

Structure (SMILES): CC(C)CC#Cc1ccc2c(c1)O[C@H](CN(C)S(=O)(=O)c1ccc(F)cc1)[C@H](C)CN([C@H](C)CO)S2(=O)=O
- AC50 (Paired box protein Pax-8): 14.5 µM (active)
- AC50 [5]: 31.9 µM (active)
- AC50 [4]: 61.2 µM (active)
- AC50 [6]: 57.1 µM (active)

Structure (SMILES): O=C(Nc1ccccc1)N1CCCCN2[C@H](CO)[C@H](c3ccc(C#Cc4ccccc4)cc3)[C@H]2C1
- AC50 (Paired box protein Pax-8): 16.8 µM (active)
- AC50 [5]: 20 µM (active)
- AC50 [4]: 35.5 µM (active)

- AC50 (Caspase-6): 10 µM (active)
Structure (SMILES): Oc1ccc(/N=C/c2c(O)ccc3ccccc23)cc1

Structure (SMILES): CCC(C(=O)OCCOCCN(CC)CC)c1ccccc1 (stereo unspecified) [BUTAMIRATE CITRATE]
- IC50 [7]: > 20 µM (inactive)
- IC50 [8]: > 20 µM (inactive)
- IC50 [9]: > 20 µM (inactive)
- IC50 [10]: > 20 µM (inactive)
- IC50 [11]: > 20 µM (inactive)
- IC50 [12]: > 20 µM (inactive)
- IC50 [13]: > 20 µM (inactive)
- IC50 [14]: > 20 µM (inactive)

Structure (SMILES): CC(C)Cn1cnc2c1c(=O)n(C)c(=O)n2C [ISBUFYLLINE]
- IC50 [7]: > 20 µM (inactive)
- IC50 [8]: > 20 µM (inactive)
- IC50 [9]: > 20 µM (inactive)
- IC50 [10]: > 20 µM (inactive)
- IC50 [11]: > 20 µM (inactive)
- IC50 [12]: > 20 µM (inactive)
- IC50 [13]: > 20 µM (inactive)
- IC50 [14]: > 20 µM (inactive)
